pEC50, pIC50: −log10 of the molar value.
Tests used:
PRC2 containing wt EZH2 = molecular target: T1, PRC2 containing wt EZH2 (Homo sapiens, UniProt Q15910); experiment: EZH2 biochemical assay (IC50), incorporation of 3H-SAM into a biotinylated H3 peptide; details: 30 pM PRC2 (wt EZH2, pentameric complex), pre-incubated 3-5 h, reaction 18-22 h
T1 construct: made in house
Procedure: EZH2 biochemical assay (IC50): Compound potencies were assessed through incorporation of ^3H-SAM into a biotinylated H3 peptide. […] Quenching was accomplished by addition of 20 μl of STOP solution (50 mM Tris (pH 8.5), 200 mM EDTA, 2 mM SAH). 35 μl of the quenched solution was transferred to streptavidin coated FlashPlates (PerkinElmer), incubated 1-2 h, washed, and read in a TopCount Reader (PerkinElmer).

H3K27me3 in Hela cells = experiment: H3K27me3 Alpha Hela Assay (AlphaLISA); format: cell-based; details: Homo sapiens, 72 hrs
Procedure: H3K27me3 Alpha Hela Assay (AlphaLISA). Ten different doses of each test compound (in a series of 3-fold dilutions) were plated in duplicate 384-well tissue culture treated plates (Catalog #6007680; Perkin Elmer, Waltham, MA). Hela cells grown in culture were trypsinized and counted using a Countess® cell counter (Catalog #C10281; Life Technologies, Grand Island, NY). Cell were diluted to 67,000 cells per mL in10% DMEM (Catalog #10569-010 Life Technologies, Grand Island, NY) and 15 μL (1,000 cells) were plated into each well using the Biotek MicroFlo™ Select Dispenser (BioTek Instruments, Inc. Vermont, USA),) of the 384-well plate. Plates were incubated at 37° C./5% CO2 for 72 hrs. One of the duplicate plates was processed for HeLa assay and the other for viability. […] The plates were then read using an EnVision-Alpha Reader (model #2104 Perkin Elmer; Waltham, MA).
Cell viability was assayed by adding 15 μL of Cell Titer Glo ((Catalog #G9241 Promega Madison, WI) to each well with cells with media. The plates were incubated at RT for 15-20 minutes on a plate shaker at low speed. The plates were then read using an EnVision-Alpha Reader (model #2104 Perkin Elmer; Waltham, MA).

Karpas-422 cell lines = experiment: Karpas-422 viability assay (Cell Titer-Glo); format: cell-based; details: Homo sapiens, Cell Titer-Glo on Day 8, cells split every 4 days
Procedure: Karpas-422 cell lines were obtained from DSMZ (Braunschweig, Germany) and were grown in RPMI-1640 media. All media contained 10% fetal bovine serum (FBS) and 1% penicillin/streptomycin (Invitrogen). 20K cells per well were plated onto 96 well compound coated plates. Cells were split and seeded at original plating density (based on the DMSO well counts) every 4 days into plates containing fresh EZH2 inhibitors. Relative cell numbers were assessed by Cell Titer-Glo luminescent cell viability assay (Promega) on Day 8. GraphPad Prism 5 was used for curve fitting and GI50 values were reported.

T1 sequence (Q15910 whole entry): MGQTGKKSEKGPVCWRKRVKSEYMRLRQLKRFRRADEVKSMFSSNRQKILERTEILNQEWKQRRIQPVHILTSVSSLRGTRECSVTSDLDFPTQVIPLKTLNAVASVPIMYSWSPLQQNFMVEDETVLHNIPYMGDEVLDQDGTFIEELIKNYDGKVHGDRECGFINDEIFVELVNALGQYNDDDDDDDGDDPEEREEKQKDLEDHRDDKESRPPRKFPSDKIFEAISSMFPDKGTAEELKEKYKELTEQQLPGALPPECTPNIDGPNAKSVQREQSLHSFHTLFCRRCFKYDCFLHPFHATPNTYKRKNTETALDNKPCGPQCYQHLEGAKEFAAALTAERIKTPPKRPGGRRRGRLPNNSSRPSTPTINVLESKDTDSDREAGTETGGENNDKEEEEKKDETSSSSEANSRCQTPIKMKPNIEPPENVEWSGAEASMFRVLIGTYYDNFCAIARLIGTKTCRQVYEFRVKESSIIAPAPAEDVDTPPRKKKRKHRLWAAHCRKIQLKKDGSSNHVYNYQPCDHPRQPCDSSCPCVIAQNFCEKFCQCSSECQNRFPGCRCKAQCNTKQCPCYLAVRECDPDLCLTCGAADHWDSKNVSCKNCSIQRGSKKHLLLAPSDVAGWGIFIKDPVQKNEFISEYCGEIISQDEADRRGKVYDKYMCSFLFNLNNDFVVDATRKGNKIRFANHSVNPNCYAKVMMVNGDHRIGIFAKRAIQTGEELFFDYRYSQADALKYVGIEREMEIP
T1 sequence (O75530 whole entry partner): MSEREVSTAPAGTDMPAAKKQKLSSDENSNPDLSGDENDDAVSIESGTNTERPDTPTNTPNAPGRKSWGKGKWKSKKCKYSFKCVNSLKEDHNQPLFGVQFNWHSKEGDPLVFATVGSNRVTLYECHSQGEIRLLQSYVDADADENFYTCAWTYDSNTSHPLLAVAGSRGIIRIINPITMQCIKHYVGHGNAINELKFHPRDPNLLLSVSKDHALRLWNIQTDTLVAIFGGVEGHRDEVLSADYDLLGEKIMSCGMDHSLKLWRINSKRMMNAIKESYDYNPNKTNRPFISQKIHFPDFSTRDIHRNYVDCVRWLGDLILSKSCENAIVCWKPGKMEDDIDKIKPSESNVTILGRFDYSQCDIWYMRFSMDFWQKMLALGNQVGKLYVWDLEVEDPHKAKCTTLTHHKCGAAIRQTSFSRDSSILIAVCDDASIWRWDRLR
T1 sequence (Q15022 whole entry partner): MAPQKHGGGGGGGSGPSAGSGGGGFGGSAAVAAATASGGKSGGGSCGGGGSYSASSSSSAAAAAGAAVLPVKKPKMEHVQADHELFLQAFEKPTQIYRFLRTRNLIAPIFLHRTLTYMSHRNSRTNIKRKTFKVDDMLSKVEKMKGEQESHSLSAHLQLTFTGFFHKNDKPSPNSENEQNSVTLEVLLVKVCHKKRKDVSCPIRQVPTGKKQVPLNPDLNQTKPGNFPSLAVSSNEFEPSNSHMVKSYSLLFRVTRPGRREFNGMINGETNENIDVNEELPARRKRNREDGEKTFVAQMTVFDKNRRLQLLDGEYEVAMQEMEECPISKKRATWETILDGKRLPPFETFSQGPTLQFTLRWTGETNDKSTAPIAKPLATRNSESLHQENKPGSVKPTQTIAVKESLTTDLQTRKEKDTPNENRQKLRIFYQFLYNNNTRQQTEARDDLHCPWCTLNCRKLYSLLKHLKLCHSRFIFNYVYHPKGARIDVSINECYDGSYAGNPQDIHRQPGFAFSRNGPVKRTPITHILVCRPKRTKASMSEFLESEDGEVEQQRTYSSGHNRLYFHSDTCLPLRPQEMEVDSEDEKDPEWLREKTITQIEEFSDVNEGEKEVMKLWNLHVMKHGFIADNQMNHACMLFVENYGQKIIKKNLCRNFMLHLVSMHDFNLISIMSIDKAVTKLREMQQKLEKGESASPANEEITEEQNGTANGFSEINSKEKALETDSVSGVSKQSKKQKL
T1 sequence (Q09028 whole entry partner): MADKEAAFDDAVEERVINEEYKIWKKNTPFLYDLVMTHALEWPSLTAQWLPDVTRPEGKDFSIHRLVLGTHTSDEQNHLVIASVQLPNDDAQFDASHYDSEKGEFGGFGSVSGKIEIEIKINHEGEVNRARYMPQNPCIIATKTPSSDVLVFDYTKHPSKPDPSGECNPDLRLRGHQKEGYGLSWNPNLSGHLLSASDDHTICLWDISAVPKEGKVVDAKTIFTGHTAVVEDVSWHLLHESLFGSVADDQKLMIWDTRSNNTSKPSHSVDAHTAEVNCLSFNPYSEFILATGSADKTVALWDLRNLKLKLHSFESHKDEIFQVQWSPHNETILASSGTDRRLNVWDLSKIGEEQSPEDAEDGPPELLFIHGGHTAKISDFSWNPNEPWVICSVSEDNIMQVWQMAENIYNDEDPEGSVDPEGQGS
T1 sequence (Q6ZN18 whole entry partner): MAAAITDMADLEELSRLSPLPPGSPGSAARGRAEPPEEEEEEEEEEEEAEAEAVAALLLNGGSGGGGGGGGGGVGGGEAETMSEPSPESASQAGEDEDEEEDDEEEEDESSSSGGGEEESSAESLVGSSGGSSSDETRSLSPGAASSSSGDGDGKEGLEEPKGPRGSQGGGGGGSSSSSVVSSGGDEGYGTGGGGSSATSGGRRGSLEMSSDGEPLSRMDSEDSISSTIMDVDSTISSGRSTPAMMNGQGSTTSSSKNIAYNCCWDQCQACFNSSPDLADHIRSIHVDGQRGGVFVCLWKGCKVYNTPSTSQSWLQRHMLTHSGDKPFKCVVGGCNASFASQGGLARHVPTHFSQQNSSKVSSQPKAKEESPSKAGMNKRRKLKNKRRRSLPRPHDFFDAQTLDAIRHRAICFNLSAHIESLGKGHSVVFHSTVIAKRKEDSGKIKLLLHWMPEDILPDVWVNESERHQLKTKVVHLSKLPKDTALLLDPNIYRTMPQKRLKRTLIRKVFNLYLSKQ

| Compound | pIC50 (PRC2 containing wt EZH2) | pEC50 (H3K27me3 in Hela cells) | GI50 (Karpas-422 cell lines) [nM] |
| --- | --- | --- | --- |
| CSc1cc(C)[nH]c(=O)c1Cn1ccc2c(Cl)c3c(c(C)c2c1=O)OC(C)([C@H]1CC[C@H](N(C)C)CC1)O3 (mixture of isomers) [Example 2, 9-Chloro-2-(Trans-4-(Dimethylamino)Cyclohexyl)-2,4-Dimethyl-6-((6-Methyl-4-(Methylthio)-2-Oxo-1,2-Dihydropyridin-3-Yl)Methyl)-[1,3]Dioxolo[4,5-g]Isoquinolin-] | 10.14 to 10.21 | – | – |
| CSc1cc(C)[nH]c(=O)c1CN1CCc2c(Cl)c3c(c(C)c2C1=O)OC(C)([C@H]1CC[C@H](N(C)C)CC1)O3 (single isomer, unassigned) [Example 1, Peak 1, 9-Chloro-2-(Trans-4-(Dimethylamino)Cyclohexyl)-2,4-Dimethyl-6-((6-Methyl-4-(Methylthio)-2-Oxo-1,2-Dihydropyridin-3-Yl)Methyl)-7,8-Dihydro-[1,3]Dioxolo[4,5-g]Isoquinolin-5(6H)-One] | – | 8.95 to 9.07 | 5.7 |
